For data set [1], the system named is OATP1B1. The arrangement: method as in ref 75 (a number printed in a supplementary file, which may have a reference list of its own: not looked up in the article's list). Particulars: cited from earlier work; for inhibition: OATP1B1/3.
The subject of data set [2] is OATP1B3. Further details: method as in ref 75 (a number printed in a supplementary file, which may have a reference list of its own: not looked up in the article's list). Particulars: cited from earlier work; for inhibition: OATP1B1/3.
The test system of data set [3] is mouse MRP1. The arrangement: method as in ref 154 (a number printed in a supplementary file, which may have a reference list of its own: not looked up in the article's list). Particulars: cited from earlier work.
For data set [4], the system named is Rat BSEP. The arrangement: method as in ref 154 (a number printed in a supplementary file, which may have a reference list of its own: not looked up in the article's list). Particulars: cited from earlier work.
Data set [5] concerns mBCRP. Further details: method as in ref 154 (a number printed in a supplementary file, which may have a reference list of its own: not looked up in the article's list). Particulars: cited from earlier work.
Data set [6] deals with ABCG5/8. The arrangement: method as in ref 155 (a number printed in a supplementary file, which may have a reference list of its own: not looked up in the article's list). Particulars: cited from earlier work.
The subject of data set [7] is MDR1. Particulars: cited from earlier work.
Data set [8] concerns rNTCP. The arrangement: method as in ref 157 (a number printed in a supplementary file, which may have a reference list of its own: not looked up in the article's list). Particulars: transcription and expression; cited from earlier work.
In data set [9] the test system is rMDR1a. Further details: method as in ref 157 (a number printed in a supplementary file, which may have a reference list of its own: not looked up in the article's list). Particulars: transcription and expression; cited from earlier work.
The test system of data set [10] is rMRP2. The arrangement: method as in ref 157 (a number printed in a supplementary file, which may have a reference list of its own: not looked up in the article's list). Particulars: transcription and expression; cited from earlier work.
In data set [11] the test system is rMRP4. Further details: method as in ref 157 (a number printed in a supplementary file, which may have a reference list of its own: not looked up in the article's list). Particulars: transcription and expression; cited from earlier work.
The test system of data set [12] is rMRP1. Further details: method as in ref 156 (a number printed in a supplementary file, which may have a reference list of its own: not looked up in the article's list). Particulars: transcription and expression; cited from earlier work.
The test system of data set [13] is SERT. Further details: method as in ref 153 (a number printed in a supplementary file, which may have a reference list of its own: not looked up in the article's list). Particulars: cited from earlier work.
For data set [14], the system named is NET. Further details: method as in ref 153 (a number printed in a supplementary file, which may have a reference list of its own: not looked up in the article's list). Particulars: cited from earlier work.
Data set [15] relates to DAT. Further details: method as in ref 153 (a number printed in a supplementary file, which may have a reference list of its own: not looked up in the article's list). Particulars: cited from earlier work.
Data set [16] has as its system HEK293-OAT1. It counts as cell-based, human. As for the experimental part: (§1) For the determination of the antiproliferative properties of the prepared extract and selected alkaloids (isopteropodine, mitraphylline, and uncarine D), an MTT assay was applied on our […] cell panel (see Table S4). […] All were maintained in a minimal essential medium completed with 10% fetal bovine serum, 1% non-essential amino acids, and 1% penicillin–streptomycin at 37 °C in a humidified atmosphere containing 5% CO2. All cell lines were purchased from the European Collection of Cell Cultures (Salisbury, UK), except for SiHa and C33A, which were from the American Tissue Culture Collection, LGC Standards GmbH (Wesel, Germany). Cell culture media and supplements were obtained from Lonza Group Ltd. (Basel, Switzerland). Cells were seeded into 96-well plates (C33A 10,000/well, all others 5000/well); after overnight incubation, the test substances were added and incubated for another 72 h under cell-culturing conditions. Uncaria tomentosa extract and the alkaloids were tested in the 1–90 μg/mL and 1–30 μM ranges, respectively. Finally, 20 μL of 5 mg/mL MTT solution was added to each well and incubated for 4 h; the medium was discarded, and the precipitated formazan crystals were dissolved in DMSO for 60 min with shaking. The absorbance was determined using a microplate reader (SPECTROstar Nano, BMG Labtech GmbH). Two independent experiments were performed with five parallels for each condition. Cisplatin, a clinically used anticancer agent (Ebewe GmbH, Unterach, Austria), was included as a reference compound. Calculations were conducted using the GraphPad Prism 10.0 software (GraphPad Software Inc., San Diego, CA, USA).
(§2) Table S4 – Antiproliferative properties of Uncaria tomentosa extract, three natural products (isopteropodine, mitraphylline, and uncarine D) and the
(§3) reference agent cisplatin.
(§4) Cell line Uncaria tomentosa isopteropodine mitraphylline uncarine D [95% confidence
(§5) 1: The highest applied concentration was 90 μg/mL and 30 μM for the extract and the pure natural products, respectively.
(§6) 2: Inhibitions less than 20% compared to the untreated control were regarded as negligible and were not given numerically.

Data set [17] deals with HEK293-OATP1B3. In kind it is cell-based, human. As for the experimental part: as §1, §2, §3, §4, §5, §6
For data set [18], the system named is HEK293-OATP2B1. It counts as cell-based, human. As for the experimental part: as §1, §2, §3, §4, §5, §6
Data set [19] has as its system HEK293-OCT1. It counts as cell-based, human. As for the experimental part: as §1, §2, §3, §4, §5, §6
The test system of data set [20] is HEK293-OCT2. It counts as cell-based, human. As for the experimental part:
as §1, §2, §3, §4, §5, §6

In data set [21] the test system is C33A. Put plainly: Antiproliferative MTT assay. In kind it is cell-based, human. Particulars: 72 h. As for the experimental part: as §1, §2, §3, §4, §5, §6
Data set [22] concerns HEK293-Mock-B. The data set is described as follows: Antiproliferative MTT assay. It counts as cell-based, human. Particulars: 72 h. As for the experimental part:
as §1, §2, §3, §4, §5, §6
For orientation: Formazan colour is commonly taken as a measure of viable cells.

Data set [23] relates to HEK293-Mock. Put plainly: Antiproliferative MTT assay. In kind it is cell-based, human. Particulars: 72 h. As for the experimental part: as §1, §2, §3, §4, §5, §6
Data set [24] deals with SiHa. Put plainly: Antiproliferative MTT assay. It counts as cell-based, human. Particulars: 72 h. As for the experimental part: as §1, §2, §3, §4, §5, §6
Data set [25] concerns NIH/3T3. Put plainly: Antiproliferative MTT assay. In kind it is cell-based, murine. Particulars: 72 h. As for the experimental part: as §1, §2, §3, §4, §5, §6
The subject of data set [26] is pregnane X receptor (PXR). Particulars: cited from earlier work.
For data set [27], the system named is A2780. Put plainly: Antiproliferative MTT assay. It counts as cell-based, human. Particulars: 30 μM pure natural product, 72 h. As for the experimental part:
as §1, §2, §3, §4, §5, §6

Data set [28] relates to HeLa. The data set is described as follows: Antiproliferative MTT assay. It counts as cell-based, human. Particulars: 30 μM pure natural product, 72 h. As for the experimental part: as §1, §2, §3, §4, §5, §6
The subject of data set [29] is MCF7. The data set is described as follows: Antiproliferative MTT assay. In kind it is cell-based, human. Particulars: 30 μM pure natural product, 72 h. As for the experimental part:
as §1, §2, §3, §4, §5, §6

Data set [30] concerns MDA-MB-231. The data set is described as follows: Antiproliferative MTT assay. In kind it is cell-based, human. Particulars: 30 μM pure natural product, 72 h. As for the experimental part: as §1, §2, §3, §4, §5, §6
The test system of data set [31] is T47D. Put plainly: Antiproliferative MTT assay. Particulars: 30 μM pure natural product, 72 h. It counts as cell-based, human. As for the experimental part:
as §1, §2, §3, §4, §5, §6

Setting [32] is: read-out: cisplatin IC50 [95% confidence interval].

Bounds are passed on as bounds.

By inhibition is commonly meant how much of the control response was suppressed. Regarding `O=C1CC(c2ccccc2)Oc2cc(O)cc(O)c21` (stereo not shown) [5,7-Dihydroxyflavanone], the inhibition in [1] and in data set [2] was less than 50% in each case.
One may read the Ki as a measure of affinity in units of concentration, obtained from inhibition or displacement. Consider `CC(C)C1=CC2=CC[C@@H]3[C@](C)(CCC[C@@]3(C)C(=O)O)[C@H]2CC1` [Abietic acid], for which the values for the inhibition constant Ki in data set [1] (first value of OATP1B1/3 pair) and in [2] (second value of OATP1B1/3 pair) were 1470 nM and 4.08 µM, respectively.
For `CC(C)=CCC[C@](C)(O)[C@@H]1CC=C(C)CC1` [Alpha-bisbolol], the inhibition in [1] and in data set [2] was less than 50% in each case.
For `CC[C@H](CC[C@@H](C)[C@H]1CC[C@H]2[C@@H]3CC=C4C[C@@H](O)CC[C@]4(C)[C@H]3CC[C@]12C)C(C)C` [Beta-Sitosterol], the Type of interaction entry in [3] is given as “no substrate, no inhibitor”; in [4], “no substrate, no inhibitor”; in [5] it was “no substrate, no inhibitor”; in data set [6] it was “probably substrate”; in data set [7], “no substrate, no inhibitor”.
With `CC1(C)C2CCC1(C)C(O)C2` (stereo not shown) [Borneol], the Type of interaction result in data set [8], in data set [9], in data set [10], in data set [11] and in data set [12] was “inhibited the transcription” in each case.
On to `COc1cc(O)cc(/C=C/c2ccccc2)c1` [Pinosylvin 3-(methyl ether)], for which the inhibition in data set [1] and in data set [2] was less than 50% each time.
Consider `CC[C@H](CC[C@@H](C)[C@H]1CC[C@H]2[C@@H]3CC=C4C[C@@H](O)CC[C@]4(C)[C@H]3CC[C@]12C)C(C)C` [Stigmast-5-en-3beta-ol], for which the inhibition in data set [1] and in data set [2] was less than 50% each time.
The IC50 is the concentration at which inhibition is half-maximal. Turning to `CC1(C)CCC2(C(=O)O)CCC3(C)C(=CCC4C5(C)CCC(O)C(C)(CO)C5CCC43C)C2C1` (stereo not drawn) [alpha-Hederagenin], the figures for the concentration for half-maximal inhibition (IC50) in data set [13], in data set [14] and in data set [15] were 1.34 ± 0.04 nM, 0.15 ± 0.02 nM and 1.09 ± 0.12 nM, respectively.
On to `N.N.[Cl][Pt][Cl]` [cisplatin, reference compound], for which the IC50 in data set [16] came to 5.55 µM; in data set [17], 11.2 µM; in data set [18], 9.7 µM; in [19], 9.14 µM; in [20], 5.51 µM; in data set [21] (setting [32]) it was 5.85 µM. Further, the IC50 is 13.3 µM in [22] (setting [32]), 19.5 µM in data set [23] (setting [32]), 4.29 µM in data set [24] (setting [32]) and 5.5 µM in data set [25] (setting [32]).
For the compound `C=C[C@H]1CN2CC[C@]3(C(=O)Nc4ccccc43)[C@@H]2C[C@@H]1/C(=C\OC)C(=O)OC` [corynoxeine], the PXR activation result in data set [26] was “PXR activators”.
Take `C=C[C@H]1CN2CC[C@@]3(C(=O)Nc4ccccc43)[C@@H]2C[C@@H]1/C(=C\OC)C(=O)OC` [isocorynoxeine]: the PXR activation entry in [26] was “PXR activators”.
`COC(=O)C1=CO[C@@H](C)[C@@H]2CN3CC[C@]4(C(=O)Nc5ccccc54)[C@@H]3C[C@H]12` [pteropodine]: in data set [26], the PXR activation entry is “PXR activators”.
Take `COC(=O)C1=CO[C@@H](C)[C@@H]2CN3CC[C@@]4(C(=O)Nc5ccccc54)[C@H]3C[C@H]12` [uncarine D]: the “Cell growth inhibition at the highest concentration (% ± SEM)” value in data set [27], in [21] (30 μM pure natural product), in data set [22] (30 μM pure natural product), in [23] (30 μM pure natural product), in [28] and in data set [29] was less than 20% each time. The “Cell growth inhibition at the highest concentration (% ± SEM)” value in data set [30], in [24] (30 μM pure natural product), in data set [31] and in data set [25] (30 μM pure natural product) was less than 20% each time.

The record behind these values is publication PMC11597817, “Modulation of Multispecific Transporters by Uncaria tomentosa Extract and Its Major Phytoconstituents” (Pharmaceutics, 2024).
